# Assay results published in US10143666B2, “Small molecule inhibitors targeting CAG-repeat RNA toxicity in polyglutamine diseases” (The Chinese University of Hong Kong, priority 2015, dated 2018).
# System: EGFPCAG78 RNA expressing SK-N-MC cells
# Experiment: LDH cytotoxicity assay, EGFPCAG78 RNA expressing SK-N-MC cells
# Assay type: cell-based, human
# Conditions: 72 hours post-transfection and treatment
# Procedure: It was next investigated whether DB213 could mitigate expanded CAG-repeat RNA-mediated toxicity in SK-N-MC human neuronal cell. […] Taken together, DB213 could suppress the expanded CAG RNA-mediated but not polyQ protein-mediate toxicity in human neuronal cell.
# SK-N-MC human neuronal cells were seeded on a 24-well plate and lactate dehydrogenase enzyme activity in the cell culture medium was measured 72 hours post-transfection and drugs treatment using the Cytotox 96 non-radioactive cytotoxicity assay (Promega).
compound,measurement,value
CN(C)CCNC(=N)c1ccc(C(=N)NCCN(C)C)cc1.Cl.Cl.Cl.Cl [DB213_D1],Cell death induced by EGFPCAG78 RNA (LDH assay),did not rescue the cell death
